Measured values reported in paper PMC3381009 (Journal of Medicinal Chemistry, 2012).

Tests used:
[1] = target: Mycobacterium tuberculosis glutamine synthetase (MtGS) (Mycobacterium tuberculosis, UniProt P9WN39); assay: MtGS inhibition screening and IC50 determination; assay type: biochemical; conditions: for inhibitory activity in the MtGS enzymatic assay (in words): inhibition screening at 25 μM; for fold increase of affinity/potency (IC50) compared to 7a: MtGS IC50 ratio vs 7a
MtGS = conditions: read-out: IC50 obtained in the HTS study; HTS assay conditions; cited from earlier work

Mycobacterium tuberculosis glutamine synthetase (MtGS), sequence (P9WN39 whole entry): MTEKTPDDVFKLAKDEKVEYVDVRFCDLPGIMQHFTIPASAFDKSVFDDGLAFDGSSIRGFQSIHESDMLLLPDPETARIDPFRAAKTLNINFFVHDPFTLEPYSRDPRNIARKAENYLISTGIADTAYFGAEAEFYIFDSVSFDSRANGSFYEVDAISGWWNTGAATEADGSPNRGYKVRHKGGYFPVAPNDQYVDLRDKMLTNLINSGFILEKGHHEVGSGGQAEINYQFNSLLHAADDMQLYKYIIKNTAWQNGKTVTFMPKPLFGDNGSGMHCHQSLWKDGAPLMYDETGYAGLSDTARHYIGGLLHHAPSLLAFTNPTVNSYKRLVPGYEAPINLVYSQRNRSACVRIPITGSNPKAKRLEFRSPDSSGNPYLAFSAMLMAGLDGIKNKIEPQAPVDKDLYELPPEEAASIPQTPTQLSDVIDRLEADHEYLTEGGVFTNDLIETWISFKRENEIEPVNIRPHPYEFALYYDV

SMILES | inhibitory activity in the MtGS enzymatic assay (in words) [1] | other results
COc1ccc2cc(-c3nc(C)[nH]c3-c3ccncc3)ccc2c1 [Compound 7f] | inactive | 
COc1ccc2cc(-c3nc(CO)[nH]c3-c3ccncc3)ccc2c1 [Compound 7i] | inactive | 
COc1ccc2cc(-c3nc(C(C)(C)C)[nH]c3-c3ccnc(N(C)C)c3)ccc2c1 [Compound 11c] | inactive | 
COc1ccc2cc(-c3nc(C(C)(C)C)[nH]c3-c3ccnc(F)c3)ccc2c1 [Compound 10] |  | fold increase of affinity/potency (IC50) compared to 7a [1]: ~2.5 fold
COc1ccc2cc(-c3nc[nH]c3-c3ccncc3)ccc2c1 [Compound 7g] | inactive | 
COc1ccc2cc(-c3nc(C(C)(C)C)[nH]c3-c3ccncc3)ccc2c1 [Compound 7a] |  | IC50 (MtGS): 100 nM; fold higher IC50 than the IC50 obtained in the HTS study [1]: 30 fold
CNc1cc(-c2[nH]c(C(C)(C)C)nc2-c2ccc3cc(OC)ccc3c2)ccn1 [Compound 11b] |  | fold loss in activity compared to 11a [1]: 100 fold
COc1ccc2cc(-c3nc(COCc4ccccc4)[nH]c3-c3ccncc3)ccc2c1 [Compound 7h] | did not show any inhibitory activity | 
COc1ccc2cc(-c3nc(C(C)(C)C)[nH]c3-c3ccnc(N)c3)ccc2c1 [Compound 11a, 4-(2-tert-Butyl-4-(6-methoxynaphthalen-2-yl)-1H-imidazol-5-yl)pyridin-2-amine] |  | fold increase of affinity/potency (IC50) compared to 7a [1]: over 60 fold
